From US20220257698A1, “ANGIOTENSIN TYPE 2 (AT2) RECEPTOR AGONISTS FOR USE IN THE TREATMENT OF CANCER” (LANTHIOPEP B.V., priority 2019, published 2022)

How the values were obtained:
[1] = test system: lung carcinoma PDX Lu7433; assay: KcAng(1-7) on growth of lung carcinoma PDX Lu7433 in mice; format: in vivo, NMRI nu/nu mice (human PDX)
Description: In vivo studies were conducted at EPO GmbH Berlin. Large studies (FIG. 1A, 2, 3, 4, 5) comprised 3 groups of 10 mice/group and 5 animals as reserve, as outlined in Table 1. Smaller studies (FIG. 1B, 1C, 1D) comprised 2 groups of mice of 3 mice per group. The animals were allocated to the various treatment groups (e.g. 0.2 μg/kg and 30 μg/kg) with a maximum of 10 animals per group. […] The groups received subcutaneous (s.c.) drug injection (for max. 28 days) as outlined in the Table 1.
NMRI nu/nu mice were used in this study. The animals were female at age of 6 to 8 weeks. The respective PDX tumors were inoculated subcutaneously (s.c.), and the tumors were grown to achieve palpable tumor sizes before start of the respective treatments. The PDX included breast (MaCa4151), colon (Co9689A), head & neck (HN10309), lung (Lu7433) and ovarian (OvCa13329) cancer (Table 2).
Treatment with KcAng(1-7) was started with palpable tumors after the randomization of animals regarding tumor volume. KcAng(1-7) was applied s.c. by daily injections at […] or 30 μg/kg dose for a maximum of 28 days (or earlier as defined by the humane end point for the study).
KcAng(1-7) was prepared as follows: The compounds was suspended in sterile PBS resulting in a clear solution. The remains of this formulation were stored at 4° C.
Tumor growth stimulatory or inhibitory activity of the KcAng(1-7) was evaluated by determination of tumor volumes (TV). During the study, tumor volumes and body weight were measured twice a week, and the ratio of the mean tumor volumes between the compound-treated group and the vehicle-treated group (T/C) was calculated.
Tumor volume=(tumor width)×(tumor width)×(tumor length)+2
T/C=T÷C • T: Mean estimated tumor volume of the compound-treated group • C: Mean estimated tumor volume of the vehicle-treated group

[2] = molecular target: tyrosine kinases (PTK) in colon carcinoma PDX lysates; assay: PamChip tyrosine kinase (PTK) activity profiling of colon carcinoma PDX tumor lysates; parameters: species or system human PDX grown in mice; Kinase score: scale not given here; conditions: for Kinase statistic: value<0 = higher activity in vehicle-treated tumors; for Kinase score: vehicle-treated vs KcAng(1-7)-treated tumors
Description: In particular, to determine the effect of treatment on kinase activities, Tyrosine (PTK) and Serine/Threonine (STK) PamChip®-based kinase activity profiling in lysates from colon carcinoma PDX was performed by PamGene International B.V., The Netherlands.
PamGene® kinase activity profiles were measured for vehicle-treated colon cancer PDX tumors (control, n=10) and KcAng(1-7)-treated colon cancer PDX tumors (treatment, n=10).
Frozen tissues of tumor samples were processed to make lysates followed by determination of tyrosine kinase and serine/threonine kinase activity profiles. Datasets were analyzed by PamGene bioinformatics toolbox, for example by using PamGene's method called Upstream Kinase Analysis.
Kinase Score was used for ranking kinases based on their significance and specificity in terms of the set of peptides used for the corresponding kinase. Kinase statistics indicates the overall change of the peptide set that represents the kinase. Kinase statistics value<0 indicates higher activity in vehicle-treated tumors.

[3] = Gr. B 0.2 μg/kg/d s.c., Day 11 (Meas. 1)
[4] = Gr. B 0.2 μg/kg/d s.c., Day 14 (Meas. 2)
[5] = Gr. B 0.2 μg/kg/d s.c., Day 18 (Meas. 3)
[6] = Gr. B 0.2 μg/kg/d s.c., Day 21 (Meas. 4)
[7] = Gr. B 0.2 μg/kg/d s.c., Day 25 (Meas. 5)
[8] = Gr. B 0.2 μg/kg/d s.c., Day 28 (Meas. 6)
[9] = Gr. C 30 μg/kg/d s.c., Day 11 (Meas. 1)
[10] = Gr. C 30 μg/kg/d s.c., Day 14 (Meas. 2)
[11] = Gr. C 30 μg/kg/d s.c., Day 18 (Meas. 3)
[12] = Gr. C 30 μg/kg/d s.c., Day 21 (Meas. 4)
[13] = Gr. C 30 μg/kg/d s.c., Day 25 (Meas. 5)
[14] = Gr. C 30 μg/kg/d s.c., Day 28 (Meas. 6)

Lys-Asp-Arg-Val-Abu/Ala-Ile-His-Abu/Ala (KDRVAIHA; not fully specified; cyclic thioether (Abu/Ala bridge); VARIANT (5)..(5) /replace=“Abu”; VARIANT (8)..(8) /replace=“Abu”; SITE (1)..(8) /note=“Variant residues given in the sequence have no preference with respect to those in the annotations for variant positions”) [KcAng(1-7)]
optT/C ([1]; 0.2 μg/kg): 68.2% | optT/C ([1]; 30 μg/kg): 71.9% | effect on tumor growth ([1]; 0.2 and 30 μg/kg, 19 days): moderate but significant decrease in tumor growth | RTV Mean [1, 3]: 1 | RTV Median [1, 3]: 1 | T/C [1, 3]: 100.1% | Tumor Vol. Mean [1, 3]: 0.112 cm^3 | Tumor Vol. Median [1, 3]: 0.109 cm^3 | RTV Mean [1, 4]: 1.7 | RTV Median [1, 4]: 1.8 | T/C [1, 4]: 88.4% | Tumor Vol. Mean [1, 4]: 0.187 cm^3 | Tumor Vol. Median [1, 4]: 0.19 cm^3 | RTV Mean [1, 5]: 3.3 | RTV Median [1, 5]: 3.4 | T/C [1, 5]: 75.1% | Tumor Vol. Mean [1, 5]: 0.373 cm^3 | Tumor Vol. Median [1, 5]: 0.412 cm^3 | RTV Mean [1, 6]: 4.2 | RTV Median [1, 6]: 4.3 | T/C [1, 6]: 75.3% | Tumor Vol. Mean [1, 6]: 0.473 cm^3 | Tumor Vol. Median [1, 6]: 0.454 cm^3 | RTV Mean [1, 7]: 5.7 | RTV Median [1, 7]: 5.6 | T/C [1, 7]: 71% | Tumor Vol. Mean [1, 7]: 0.643 cm^3 | Tumor Vol. Median [1, 7]: 0.625 cm^3 | RTV Mean [1, 8]: 7.6 | RTV Median [1, 8]: 8.1 | T/C [1, 8]: 68.2% | Tumor Vol. Mean [1, 8]: 0.844 cm^3 | Tumor Vol. Median [1, 8]: 0.808 cm^3 | RTV Mean [1, 9]: 1 | RTV Median [1, 9]: 1 | T/C [1, 9]: 99.7% | Tumor Vol. Mean [1, 9]: 0.112 cm^3 | Tumor Vol. Median [1, 9]: 0.099 cm^3 | RTV Mean [1, 10]: 1.6 | RTV Median [1, 10]: 1.6 | T/C [1, 10]: 85.1% | Tumor Vol. Mean [1, 10]: 0.18 cm^3 | Tumor Vol. Median [1, 10]: 0.168 cm^3 | RTV Mean [1, 11]: 3.2 | RTV Median [1, 11]: 3.1 | T/C [1, 11]: 71.9% | Tumor Vol. Mean [1, 11]: 0.357 cm^3 | Tumor Vol. Median [1, 11]: 0.376 cm^3 | RTV Mean [1, 12]: 4.3 | RTV Median [1, 12]: 4.1 | T/C [1, 12]: 75.1% | Tumor Vol. Mean [1, 12]: 0.472 cm^3 | Tumor Vol. Median [1, 12]: 0.509 cm^3 | RTV Mean [1, 13]: 6.1 | RTV Median [1, 13]: 5.9 | T/C [1, 13]: 75.3% | Tumor Vol. Mean [1, 13]: 0.682 cm^3 | Tumor Vol. Median [1, 13]: 0.719 cm^3 | RTV Mean [1, 14]: 8.2 | RTV Median [1, 14]: 8.2 | T/C [1, 14]: 73.7% | Tumor Vol. Mean [1, 14]: 0.912 cm^3 | Tumor Vol. Median [1, 14]: 0.991 cm^3 | Kinase statistic ([2]; kinase CCK4/PTK7): −0.58 | Kinase score ([2]; kinase CCK4/PTK7): 2.23 | Kinase statistic ([2]; kinase EPHA1): −0.52 | Kinase score ([2]; kinase EPHA1): 2.01 | Kinase statistic ([2]; kinase EPHA2): −0.50 | Kinase score ([2]; kinase EPHA2): 1.96 | Kinase statistic ([2]; kinase EPHA3): −0.55 | Kinase score ([2]; kinase EPHA3): 2.38 | Kinase statistic ([2]; kinase EPHA4): −0.52 | Kinase score ([2]; kinase EPHA4): 2.55 | Kinase statistic ([2]; kinase EPHA8): −0.51 | Kinase score ([2]; kinase EPHA8): 1.71 | Kinase statistic ([2]; kinase FER): −0.51 | Kinase score ([2]; kinase FER): 2.49 | Kinase statistic ([2]; kinase FES): −0.47 | Kinase score ([2]; kinase FES): 1.84 | Kinase statistic ([2]; kinase FGFR1): −0.49 | Kinase score ([2]; kinase FGFR1): 2.39 | Kinase statistic ([2]; kinase FGFR2): −0.47 | Kinase score ([2]; kinase FGFR2): 1.82 | Kinase statistic ([2]; kinase FGFR3): −0.48 | Kinase score ([2]; kinase FGFR3): 1.89 | Kinase statistic ([2]; kinase HER2): −0.47 | Kinase score ([2]; kinase HER2): 2.68 | Kinase statistic ([2]; kinase HER4): −0.47 | Kinase score ([2]; kinase HER4): 2.11 | Kinase statistic ([2]; kinase JAK1~B): −0.49 | Kinase score ([2]; kinase JAK1~B): 1.70 | Kinase statistic ([2]; kinase LMR1): −0.71 | Kinase score ([2]; kinase LMR1): 4.10 | Kinase statistic ([2]; kinase MER): −0.44 | Kinase score ([2]; kinase MER): 1.74 | Kinase statistic ([2]; kinase MET): −0.46 | Kinase score ([2]; kinase MET): 2.16 | Kinase statistic ([2]; kinase TEC): −0.44 | Kinase score ([2]; kinase TEC): 1.79 | Kinase statistic ([2]; kinase TXK): −0.46 | Kinase score ([2]; kinase TXK): 2.05 | Kinase statistic ([2]; kinase TYRO3/SKY): −0.45 | Kinase score ([2]; kinase TYRO3/SKY): 2.03
